Laboratory results reported in patent US8497278B2, “Imidazo[1,2-a]pyridine compounds” (priority 2008, dated 2013).

test system: central benzodiazepine receptors; experiment: Central benzodiazepine receptor binding (test of Speth et al.); details: 1000 nM of the compound
Procedure: Compounds of the invention were assessed for their binding to the benzodiazepine receptor by the test of Speth et al. [Life Sci. 24, 351 (1979)] for central benzodiazepine receptors and LeFur et al. [Life Sci. 33, 449 (1983)] for peripheral receptors. The compounds were tested first at 1.0E-09, 1.0E-07 and 1.0E-05 M in single determination. […] The specific ligand binding to the receptor is defined as the difference between the total binding and the nonspecific binding determined in the presence of an excess of unlabelled ligand. In each experiment, the respective reference compound was tested concurrently with the test compounds in order to assess the assay suitability. It was tested at several concentrations (for IC50 value determination), and the data were compared with historical values. The assay was rendered valid if suitability criteria were met.
BZD central binding data for the compounds is provided in Table 3, wherein is provided the percent inhibition of central BZD in the presence of 1000 nM of the compound.

Structure (SMILES) | % Inhibition at 1000 nM for CBZD
Cc1ccc(-c2nc3ccc(C)cn3c2Cn2ccnc2)cc1 [Compound 1, 3-((1H-imidazol-1-yl)methyl)-6-methyl-2-p-tolylimidazo[1,2-a]pyridine] | ++ (percentage of inhibition of central BZD site binding is greater than 80% in the presence of 1000 nM of the compound)
Cc1ccc(-c2nc3ccc(C)cn3c2Cn2cnc(Cl)c2Cl)cc1 [Compound 3, 3-((4,5-Dichloro-1H-imidazol-1-yl)methyl)-6-methyl-2-p-tolylH-imidazo[1,2-a]pyridine] | + (percentage of inhibition of central BZD site binding is greater than 50% but less than 80% in the presence of 1000 nM of the compound)
Cc1ccc(-c2nc3ccc(C)cn3c2Cn2ccnc2C(C)C)cc1 [Compound 5, 3-((2-Isopropyl-1H-imidazol-1-yl)methyl)-6-methyl-2-p-tolylH-imidazo[1,2-a]pyridine] | ++ (percentage of inhibition of central BZD site binding is greater than 80% in the presence of 1000 nM of the compound)
COC(=O)c1ncnn1Cc1c(-c2ccc(C)cc2)nc2ccc(C)cn12 [Compound 10, 2-(6-Methyl-2-p-tolyl-imidazo[1,2-a]pyridin-3-ylmethyl)-2H-[1,2,4]triazole-3-carboxylic acid methyl ester] | ++ (percentage of inhibition of central BZD site binding is greater than 80% in the presence of 1000 nM of the compound)
COC(=O)c1ncn(Cc2c(-c3ccc(C)cc3)nc3ccc(C)cn23)n1 [Compound 11, 1-(6-Methyl-2-p-tolyl-imidazo[1,2-a]pyridin-3-ylmethyl)-1H-[1,2,4]triazole-3-carboxylic acid methyl ester] | ++ (percentage of inhibition of central BZD site binding is greater than 80% in the presence of 1000 nM of the compound)
CCOC(=O)c1nccn1Cc1c(-c2ccc(C)cc2)nc2ccc(C)cn12 [Compound 12, 1-(6-Methyl-2-p-tolyl-imidazo[1,2-a]pyridin-3-ylmethyl)-1H-imidazole-2-carboxylic acid ethyl ester] | ++ (percentage of inhibition of central BZD site binding is greater than 80% in the presence of 1000 nM of the compound)
Cc1ccc(-c2nc3ccc(C)cn3c2Cn2ccnc2-c2ccccc2)cc1 [Compound 13, 6-Methyl-3-((2-phenyl-1H-imidazol-1-yl)methyl)-2-p-tolylH-imidazo[1,2-a]pyridine] | + (percentage of inhibition of central BZD site binding is greater than 50% but less than 80% in the presence of 1000 nM of the compound)
Cc1ccc(-c2nc3ccc(C)cn3c2Cn2c(C)nc3ccccc32)cc1 [Compound 14, 2-Methyl-1-((6-methyl-2-p-tolylH-imidazo[1,2-a]pyridin-3-yl)methyl)-1H-benzo[d]imidazole] | − (percentage of inhibition of central BZD site binding is less than 50% in the presence of 1000 nM of the compound)
Cc1ccc(-c2nc3ccc(C)cn3c2Cn2cnc3ccccc32)cc1 [Compound 16, 1-((6-Methyl-2-p-tolyl-H-imidazo[1,2-a]pyridin-3-yl)methyl)-1H-benzo[d]imidazole] | ++ (percentage of inhibition of central BZD site binding is greater than 80% in the presence of 1000 nM of the compound)
Clc1ccc(-c2nc3ccc(Cl)cn3c2Cn2cncn2)cc1 [Compound 18, 3-((1H-1,2,4-triazol-1-yl)methyl)-6-chloro-2-(4-chlorophenyl)H-imidazo[1,2-a]pyridine] | ++ (percentage of inhibition of central BZD site binding is greater than 80% in the presence of 1000 nM of the compound)
CCOC(=O)c1nccn1Cc1c(-c2ccc(Cl)cc2)nc2ccc(Cl)cn12 [Compound 22, 1-[6-Chloro-2-(4-chloro-phenyl)-imidazo[1,2-a]pyridin-3-ylmethyl]-1H-imidazole-2-carboxylic acid ethyl ester] | ++ (percentage of inhibition of central BZD site binding is greater than 80% in the presence of 1000 nM of the compound)
COC(=O)c1ncnn1Cc1c(-c2ccc(Cl)cc2)nc2ccccn12 [Compound 24, 2-[2-(4-Chloro-phenyl)-imidazo[1,2-a]pyridin-3-ylmethyl]-2H-[1,2,4]triazole-3-carboxylic acid methyl ester] | ++ (percentage of inhibition of central BZD site binding is greater than 80% in the presence of 1000 nM of the compound)
CCOC(=O)c1nccn1Cc1c(-c2ccc(Cl)cc2)nc2ccccn12 [Compound 26, Ethyl 1-((2-(4-chlorophenyl)H-imidazo[1,2-a]pyridin-3-yl)methyl)-1H-imidazole-2-carboxylate] | ++ (percentage of inhibition of central BZD site binding is greater than 80% in the presence of 1000 nM of the compound)
CCOC(=O)c1cc(C)nn1Cc1c(-c2ccc(Cl)cc2)nc2ccccn12 [Compound 28, Ethyl 1-((2-(4-chlorophenyl)imidazo[1,2-a]pyridin-3-yl)methyl)-3-methyl-1H-pyrazole-5-carboxylate] | ++ (percentage of inhibition of central BZD site binding is greater than 80% in the presence of 1000 nM of the compound)
CCOC(=O)c1cc(-c2ccco2)n(Cc2c(-c3ccc(Cl)cc3)nc3ccccn23)n1 [Compound 30, Ethyl 1-((2-(4-chlorophenyl)imidazo[1,2-a]pyridin-3-yl)methyl)-5-(furan-2-yl)-1H-pyrazole-3-carboxylate] | + (percentage of inhibition of central BZD site binding is greater than 50% but less than 80% in the presence of 1000 nM of the compound)
CCOC(=O)c1cc(-c2ccco2)nn1Cc1c(-c2ccc(Cl)cc2)nc2ccccn12 [Compound 31, Ethyl 1-((2-(4-chlorophenyl)imidazo[1,2-a]pyridin-3-yl)methyl)-3-(furan-2-yl)-1H-pyrazole-5-carboxylate] | + (percentage of inhibition of central BZD site binding is greater than 50% but less than 80% in the presence of 1000 nM of the compound)
COC(=O)c1cc2occc2n1Cc1c(-c2ccc(Cl)cc2)nc2ccccn12 [Compound 33, Methyl 4-((2-(4-chlorophenyl)imidazo[1,2-a]pyridin-3-yl)methyl)-4H-furo[3,2-b]pyrrole-5-carboxylate] | ++ (percentage of inhibition of central BZD site binding is greater than 80% in the presence of 1000 nM of the compound)
COC(=O)c1nn(Cc2c(-c3ccc(Cl)cc3)nc3ccccn23)c2ccccc12 [Compound 34, Methyl 1-((2-(4-chlorophenyl)imidazo[1,2-a]pyridin-3-yl)methyl)-1H-indazole-3-carboxylate] | + (percentage of inhibition of central BZD site binding is greater than 50% but less than 80% in the presence of 1000 nM of the compound)
COC(=O)C1Cc2ccccc2N1Cc1c(-c2ccc(Cl)cc2)nc2ccccn12 (centres unmarked) [Compound 35, Methyl 1-((2-(4-chlorophenyl)imidazo[1,2-a]pyridin-3-yl)methyl)indoline-2-carboxylate] | + (percentage of inhibition of central BZD site binding is greater than 50% but less than 80% in the presence of 1000 nM of the compound)
CNC(=O)c1nc2ccccc2n1Cc1c(-c2ccc(Cl)cc2)nc2ccccn12 [Compound 36, 1-((2-(4-chlorophenyl)imidazo[1,2-a]pyridin-3-yl)methyl)-N-methyl-1H-benzo[d]imidazole-2-carboxamide] | + (percentage of inhibition of central BZD site binding is greater than 50% but less than 80% in the presence of 1000 nM of the compound)
CCOC(=O)c1cc2ccccc2n1Cc1c(-c2ccc(Cl)cc2)nc2ccccn12 [Compound 37, Ethyl 1-((2-(4-chlorophenyl)imidazo[1,2-a]pyridin-3-yl)methyl)-1H-indole-2-carboxylate] | − (percentage of inhibition of central BZD site binding is less than 50% in the presence of 1000 nM of the compound)
COC(=O)c1cn(Cc2c(-c3ccc(Cl)cc3)nc3ccccn23)c2ccccc12 [Compound 38, Methyl 1-((2-(4-chlorophenyl)imidazo[1,2-a]pyridin-3-yl)methyl)-1H-indole-3-carboxylate] | ++ (percentage of inhibition of central BZD site binding is greater than 80% in the presence of 1000 nM of the compound)
Clc1ccc(-c2nc3ccccn3c2Cn2cnnn2)cc1 [Compound 41, 3-((1H-tetrazol-1-yl)methyl)-2-(4-chlorophenyl)imidazo[1,2-a]pyridine] | ++ (percentage of inhibition of central BZD site binding is greater than 80% in the presence of 1000 nM of the compound)
COC(=O)c1ncn(Cc2c(-c3ccccc3)nc3ccc(Cl)cn23)n1 [Compound 45, 1-(6-Chloro-2-phenyl-imidazo[1,2-a]pyridin-3-ylmethyl)-1H-[1,2,4]triazole-3-carboxylic acid methyl ester] | + (percentage of inhibition of central BZD site binding is greater than 50% but less than 80% in the presence of 1000 nM of the compound)
Fc1ccc(-c2nc3ccccn3c2Cn2ccnn2)cc1 [Compound 48, 3-((1H-1,2,3-triazol-1-yl)methyl)-2-(4-fluorophenyl)H-imidazo[1,2-a]pyridine] | ++ (percentage of inhibition of central BZD site binding is greater than 80% in the presence of 1000 nM of the compound)
c1ccc(-c2nc3ccccn3c2Cn2ccnn2)cc1 [Compound 50, 3-((1H-1,2,3-triazol-1-yl)methyl)-2-phenylH-imidazo[1,2-a]pyridine] | + (percentage of inhibition of central BZD site binding is greater than 50% but less than 80% in the presence of 1000 nM of the compound)
